# In PMC6537213, “Ellagic acid microspheres restrict the growth of Babesia and Theileria in vitro and Babesia microti in vivo” (Parasites & Vectors, 2019):
# Values joined by “and” are separate entries in the source; they are usually repeats but may differ in a detail not shown here. Equal values may be shown once.
# What was measured:
# [1] = test system: Babesia bovis (Texas strain); assay: in vitro growth inhibition assay (SYBR Green I fluorescence), single drug and 1:1 combination; format: cell-based; conditions: for IC50: B. bovis in vitro culture, 4 days
# Procedure: (§1) A microaerophilic stationary-phase culture system was used to maintain Babesia parasite cultures for a long time. Briefly, B. caballi (USDA strain) was grown using equine red blood cells (RBCs) in GIT medium supplemented with 40% equine serum. Theileria equi (USDA strain) was grown in equine RBCs in Medium 199 (M199; Sigma-Aldrich, Tokyo) supplemented with 40% equine serum, and hypoxanthine (MP Biomedicals, Santa Ana, CA, USA) at a final concentration of 13.6 μg/ml was used as a vital supplement. Babesia bovis (Texas strain) and B. bigemina (Argentina strain) were grown in bovine RBCs in M199 medium supplemented with 40% bovine serum. Meanwhile, B. divergens (Germany strain) was grown in bovine RBCs in medium RPMI 1640 (Sigma-Aldrich, Tokyo) supplemented with 40% bovine serum. All media included 60 U/ml penicillin G, 60 μg/ml streptomycin and 0.15 μg/ml amphotericin B (Sigma-Aldrich, St. Louis, MO, USA) to prevent bacterial contamination. The cultures were incubated at 37 °C in a humidified chamber with an atmosphere of 5% CO2, 5% O2 and 90% N2. Babesia microti (Munich strain) was recovered from − 80 °C stock, intraperitoneally injected in two 8-week old female BALB/c mice (Clea Japan, Tokyo, Japan), and the parasitemia was monitored every 2 days. The mice were euthanized using an anesthesia system containing isoflurane after parasitemia reached approximately 30%, and blood was collected by cardiac puncture to initiate the in vivo experiment. The animal experiment was conducted in accordance with the Regulations for Animal Experiments of Obihiro University of Agriculture and Veterinary Medicine, Japan (animal experiment accession number: 290168).
# (§2) Assays were performed in accordance with the previously described protocol. Briefly, B. bovis, B. bigemina, B. divergens, B. caballi and T. equi cultures were harvested and adjusted to 1% parasitemia with fresh RBCs to start the inhibition assay. The assays were carried out using 96-well microtiter plates where only the 60 inner wells were used, while the peripheral wells were filled with sterile distillate water to reduce evaporation during incubation. In five 96-well plates, a volume of 2.5 µl each of B. bigemina- and B. bovis-iRBCs and 5 µl each of B. divergens-, B. caballi- and T. equi-iRBCs were added to each well in triplicate and mixed with a culture medium containing the drug concentrations to a total volume of 100 µl. Various concentrations of EA, β-CD EA, APSP EA, DA, CF and AQ were dissolved in a culture medium using two-fold dilution. Wells containing DMSO at a final concentration of 0.4% and iRBCs were used as a positive control, while wells with non-infected RBCs and culture medium were used as a negative control. Additionally, a drug combination assay was performed in parallel with the single drug assay at a constant ratio of 1:1, as described previously. […] The plates were incubated in a humidified incubator with 5% CO2, 5% O2 and 90% N2 for 4 days without changing the medium. On day 4, 100 µl of a lysis buffer containing 2 × SG1 was added to each well. The plates were wrapped with aluminum foil to avoid direct light exposure and incubated at room temperature. After 6 h, fluorescence values were measured using a fluorescence spectrophotometer (Fluoroskan Ascent; Thermo LabSystems, Oceanside, CA, USA) with excitation and emission wavelengths of 485 and 518 nm, respectively. The fluorescence data were subtracted from the negative control and used to calculate the IC50. To calculate the degree of association, the growth-inhibition values obtained were entered into CompuSyn software, based on the combination index (CI) values. […] The experiments were repeated three times.
# [2] = test system: Theileria equi (USDA strain); assay: as above; format: cell-based; conditions: for IC50: T. equi in vitro culture, 4 days
# Procedure: as §1, §2
# [3] = test system: B. caballi (USDA strain); assay: as above; format: cell-based, Babesia caballi; conditions: for IC50: B. caballi in vitro culture, 4 days
# Procedure: as §1
# (§3) Assays were performed in accordance with the previously described protocol. Briefly, B. bovis, B. bigemina, B. divergens, B. caballi and T. equi cultures were harvested and adjusted to 1% parasitemia with fresh RBCs to start the inhibition assay. The assays were carried out using 96-well microtiter plates where only the 60 inner wells were used, while the peripheral wells were filled with sterile distillate water to reduce evaporation during incubation. In five 96-well plates, a volume of 2.5 µl each of B. bigemina- and B. bovis-iRBCs and 5 µl each of B. divergens-, B. caballi- and T. equi-iRBCs were added to each well in triplicate and mixed with a culture medium containing the drug concentrations to a total volume of 100 µl. Various concentrations of EA, β-CD EA, APSP EA, DA, CF and AQ were dissolved in a culture medium using two-fold dilution. Wells containing DMSO at a final concentration of 0.4% and iRBCs were used as a positive control, while wells with non-infected RBCs and culture medium were used as a negative control. Additionally, a drug combination assay was performed in parallel with the single drug assay at a constant ratio of 1:1, as described previously. […] The plates were incubated in a humidified incubator with 5% CO2, 5% O2 and 90% N2 for 4 days without changing the medium. On day 4, 100 µl of a lysis buffer containing 2 × SG1 was added to each well. The plates were wrapped with aluminum foil to avoid direct light exposure and incubated at room temperature. After 6 h, fluorescence values were measured using a fluorescence spectrophotometer (Fluoroskan Ascent; Thermo LabSystems, Oceanside, CA, USA) with excitation and emission wavelengths of 485 and 518 nm, respectively. The fluorescence data were subtracted from the negative control and used to calculate the IC50. […]
# [4] = test system: L. major; set-up: method as in PMID 28643086; conditions: cited from earlier work
# [5] = test system: Babesia microti (Munich strain); assay: in vivo growth inhibition and drug combination assays in B. microti-infected BALB/c mice; conditions: for peak parasitemia level: 5 days
# Procedure: as §1
# In vivo growth inhibition assays of EA, β-CD EA and APSP EA were performed in B. microti-infected BALB/c mice in accordance with the previous protocol in two separate trials. […] The mice in groups 2–8 were intraperitoneally (i.p.) injected with 0.5 ml of inoculum (1 × 10^7 B. microti-iRBCs). Group 1 was left uninfected and untreated as a negative control. When the average parasitemia in all mice reached 1%, drug treatment was initiated for 5 consecutive days. […] DA at a concentration of 25 mg/kg body weight (BW) was administrated i.p. to the third group as a reference drug control.
# [6] = test system: B. bigemina (Argentina strain); assay: in vitro growth inhibition assay (SYBR Green I fluorescence), single drug and 1:1 combination; format: cell-based, Babesia bigemina; conditions: for IC50: B. bigemina in vitro culture, 4 days
# Procedure: as §1, §3
# [7] = test system: P. falciparum; set-up: method as in PMID 19015354; conditions: cited from earlier work
# [8] = test system: Madin-Darby bovine kidney (MDBK) cell line; assay: cytotoxicity assay (CCK-8); format: cell-based; conditions: for EC50: MDBK cells, 24 h exposure, CCK-8
# Procedure: (§4) The MDBK cell line was maintained in 75 cm^2 culture flasks with Minimum Essential Medium Eagle (MEM; Gibco, Grand Island, NY, USA), while Dulbecco’s Modified Eagle’s Medium (DMEM; […] Each medium was supplemented with 10% fetal bovine serum, 0.5% penicillin/streptomycin (Gibco), and an additional 1% glutamine. Every 3 to 4 days, the medium was changed, and the cells were incubated until approximately 80% confluent. The cells were free from mycoplasma contamination after being checked by staining with 4,6-diamidino-2-phenylindole dihydrochloride (DAPI; Sigma-Aldrich, St. Louis). The cell detachment from the culture flask was done using TrypLE^TM Express (Gibco) after washing two times with Dulbecco’s phosphate-buffered saline (DPBS). Subsequently, viable cells were counted using a Neubauer Improved C-Chip (NanoEnTek Inc., Seoul, Korea) after staining with 0.4% trypan blue solution. The drug-exposure viability assay was performed in accordance with the recommendation for the Cell Counting Kit-8 (CCK-8; Dojindo, Kumamoto, Japan). Briefly, in a 96-well plate, 100 µl of cells at a density of 5 × 10^4 cells/ml were seeded per well and allowed to attach to the plate for 24 h at 37 °C in a humidified incubator with 5% CO2. Ten microliters of drug diluted two-fold were added to each well to a final concentration of 0.781 to 800 µM in triplicate. Wells with only a culture medium were used as blanks, while wells containing cells and a medium with 0.5% DMSO were used as positive controls. Drug exposure lasted for 24 h. After 24 h, 10 µl of CCK-8 was added, and the plate was further incubated for 3 h. Absorbance was measured at 450 nm using a microplate reader.
# [9] = test system: human foreskin fibroblast (HFF) cell line; assay: cytotoxicity assay (CCK-8); format: cell-based; conditions: for EC50: HFF cells, 24 h exposure, CCK-8
# Procedure: as §4
# [10] = test system: mouse embryonic fibroblast (NIH/3T3) cell line; assay: cytotoxicity assay (CCK-8); format: cell-based; conditions: for EC50: NIH/3T3 cells, 24 h exposure, CCK-8; for inhibition of cell viability: NIH/3T3
# Procedure: as §4
# [11] = test system: B. divergens (Germany strain); assay: in vitro growth inhibition assay (SYBR Green I fluorescence), single drug and 1:1 combination; format: cell-based, Babesia divergens; conditions: for IC50: B. divergens in vitro culture, 4 days
# Procedure: as §1, §3
# [12] = test system: B. microti; assay: nested PCR detection of B. microti ss-rRNA gene in blood of treated mice; format: in vivo, Babesia microti; conditions: day 42; 25 mg/kg DA
structure (smiles),measurement,setting,value
"O=c1oc2c(O)c(O)cc3c(=O)oc4c(O)c(O)cc1c4c23 [EA, Ellagic acid]",concentration that significantly inhibited the growth,"[1]; B. bovis, t-test vs control",0.078 µM
same,IC50,"[1]; Babesia bovis, in Bos taurus, 96 h",9.58 ± 1.47 µM
same,concentration that significantly inhibited the growth,"[2]; T. equi, t-test vs control",0.125 µM
same,IC50,"[2]; Theileria equi, 96 h",7.46 ± 0.6 µM
same,concentration that significantly inhibited the growth,"[3]; B. caballi, t-test vs control",0.125 µM
same,IC50,"[3]; Babesia caballi, 96 h",3.29 ± 0.42 µM
same,IC50,[4],9.8 μg/ml^e
same,peak parasitemia level,"[5]; first assay, 35 mg/kg EA i.p., peak on day 8, DDW control 57.7%",29.5%
same,concentration that significantly inhibited the growth,"[6]; B. bigemina, t-test vs control",0.078 µM
same,IC50,"[6]; Babesia bigemina, 96 h",7.87 ± 5.8 µM
same,IC50,[7],0.33 µM
same,EC50,"[8]; Bos taurus, MDBK, 24 h",> 800 µM
same,Selective indices MDBK,[8]; EC50 MDBK / IC50 B. bigemina,> 101.3
same,Selective indices MDBK,[8]; EC50 MDBK / IC50 B. bovis,> 83.3
same,Selective indices MDBK,[8]; EC50 MDBK / IC50 B. divergens,> 148.1
same,Selective indices MDBK,[8]; EC50 MDBK / IC50 T. equi,> 106.7
same,inhibition of cell viability,"[8]; MDBK, 800 µM",did not show any inhibition
same,Selective indices HFF,[9]; EC50 HFF / IC50 B. bigemina,> 101.3
same,Selective indices HFF,[9]; EC50 HFF / IC50 B. bovis,> 83.3
same,Selective indices HFF,[9]; EC50 HFF / IC50 B. divergens,> 148.1
same,Selective indices HFF,[9]; EC50 HFF / IC50 T. equi,> 106.7
same,EC50,[9]; Homo sapiens,> 800 µM
same,Selective indices NIH/3T3,[10]; EC50 NIH/3T3 / IC50 B. bigemina,> 101.3
same,Selective indices NIH/3T3,[10]; EC50 NIH/3T3 / IC50 B. bovis,> 83.3
same,Selective indices NIH/3T3,[10]; EC50 NIH/3T3 / IC50 B. divergens,> 148.1
same,Selective indices NIH/3T3,[10]; EC50 NIH/3T3 / IC50 T. equi,> 106.7
same,EC50,"[10]; Mus musculus, NIH3T3",> 800 µM
same,inhibition of cell viability,[10]; 800 µM,did not show any inhibition
same,concentration that significantly inhibited the growth,"[11]; B. divergens, t-test vs control",0.125 µM
same,IC50,"[11]; Babesia divergens, 96 h",5.41 ± 2.8 µM
"CC(=O)NCC(=O)O.CC(=O)NCC(=O)O.N=C(N)c1ccc(N=NNc2ccc(C(=N)N)cc2)cc1 [DA, diminazene aceturate]",IC50,[1],0.35 ± 0.06 µM
same,IC50,[2],0.71 ± 0.05 µM
same,IC50,[3],0.022 µM and 0.02 µM
same,peak parasitemia level,"[5]; first assay, 25 mg/kg DA i.p., peak on day 8, DDW control 57.7%",5.2%
same,day p.i. from which parasitemia was undetectable by microscopic examination,"[5]; second assay, 25 mg/kg DA",13 day p.i.
same,peak parasitemia level,"[5]; second assay, 25 mg/kg DA i.p., DDW control 58.3%",3.9%
same,parasite DNA in blood (nPCR),[12],not detected
same,IC50,[6],0.68 ± 0.09 µM
same,EC50,[8],> 100 µM
same,inhibition of cell viability,"[8]; MDBK, 100 µM, separate assay",did not show any inhibition
same,EC50,[9],> 100 µM
same,inhibition of cell viability,"[9]; HFF, 100 µM, separate assay",did not show any inhibition
same,inhibition of cell viability,"[10]; 100 µM, separate assay",did not show any inhibition
same,EC50,[10],> 100 µM
same,IC50,[11],0.43 ± 0.05 µM
